Consider one molecule from patent publication US9192601B2, “Methods for enhancing muscle performance and tone” (Salk Institute for Biological Studies, priority 2006, dated 2015).

Molecules are shown by their SMILES. “Also recorded” adds a separate entry of the source.

The test relates to quadriceps muscle. The experiment in a line: Real time quantitative PCR of gene expression in quadriceps muscle. In kind it is in vivo, mouse. The protocol:
Animals were euthanized by carbon dioxide asphyxiation 72 hours after the final treatment. Gastrocnemius and quadriceps muscles were isolated, frozen and stored at −80° C. for future analysis. Total RNA was prepared from quadriceps muscle using TRIzoL™ reagent (Invitrogen, Carlsbad, Calif., USA) in conformance with manufacturer's instructions. Real time quantitative PCR (QPCR) was used to determine expression levels of uncoupling protein 3 (UCP3), muscle carnitine palmitoyl transferase I (mCPT I) and pyruvate dehydrogenase kinase 4 (PDK4) using primers known to those of ordinary skill in the art.
In addition to affecting the contractile apparatus of skeletal muscle, exercise training also increases skeletal muscle mitochondrial density (e.g., Freyssenet et al., Arch. Physiol. Biochem., 104(2): 129-141, 1996). […] Mice in all groups were acclimated to moderate treadmill running and basal running endurance was determined as described in Example 1. Thereafter, mice in the exercise-trained groups received four weeks (5 days/week) of exercise training on a treadmill inclined at 5 degrees. […] At the end of four weeks, all exercise-trained mice were running for 50 min/day at 18 m/min. […] Unless otherwise noted, V, GW, Tr and GW+Tr subjects described in this and the examples below were similarly treated. At the end of the drug treatment and/or training protocol (Week 5) 6 mice per group were subjected to the running test. […] RNA was prepared real time quantitative PCR performed as described in Example 1.

On to `Cc1cc(SCc2sc(-c3ccc(C(F)(F)F)cc3)nc2C)ccc1OCC(=O)O` [GW1516, (2-methyl-4(((4-methyl-2-(4-trifluoromethylphenyl)-1,3-thiazol-5-yl)methyl)sulfanyl)phenoxy)acetic acid], for which the “earliest detection of changes in UCP3, mCPT I, PDK4 expression” value (2-5 mg/kg/day) came to 4 days. Moreover, the “expression of SCDl, FAS, SREBPIc, FAT/CD36, LPL” value (GW1516 alone) is “no response” and the “expression of SCDl, FAS, SREBPIc, FAT/CD36, LPL” value (GW1516 combined with exercise) is “robustly induced”. Further, the “expression of UCP3, mCPT I, and PDK4” value runs as follows: (GW1516 alone, four weeks, quadriceps) “induced; also recorded: upregulated”; (GW1516 with exercise vs GW1516 alone) “no further induction”.
